Assay results reported in PubChem BioAssay AID588396 (Broad Institute, 2011).
“And” between values parts separate entries of the source, which are not always exact repeats. Equal entries are not always repeated. Records with an inconclusive call do not appear. The source made the active and inactive calls.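 The calls were made as follows: active = loss of yeast growth signal with half-maximal concentration no more than ten times the top tested dose, in every run; inconclusive = runs disagree, or a weak flat curve or poor fit; inactive = inactive in every run.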

Tested on: S. cerevisiae expressing PfHsp90, BacTiter-Glo ATP luminescence, 48 h
Assay: growth inhibition of yeast expressing PfHsp90, dose response, antimalarial PfHsp90 inhibitor project, S. cerevisiae, BacTiter-Glo luminescence, dry powder samples (AID 588396)
Details: not given

| Structure (SMILES) | AC50 [µM] |
| --- | --- |
| O=C(CSCC(=O)N1CCCCC1)Nc1nc(-c2ccc(Cl)s2)cs1 | 14.5 |
| Cc1ccc(O)c(NC(=S)NC(=O)c2ccc(-c3ccc(Cl)cc3)o2)c1 | 6.37 |
| O=C(O)/C=C/c1cn(-c2ccccc2)nc1-c1cc2ccccc2o1 | 9.7 |
| O=C1C(Cl)=C(Oc2ccccc2)C(=O)c2ccccc21 | 0.974 |
| O=S(=O)(/C=C/c1ccccc1)NC1CCCCCCC1 | 6.52 |
| O=S(=O)(NC1CCCCCC1)c1ccc(Br)s1 | 1.34 |
| CCN(CC)c1ccc(/C=C2/SC(=O)N(C(C)C)C2=O)o1 | 12.2 |
| O=S(=O)(NC1CC2CCC1C2)c1ccc(Cl)cc1 (stereo not given) | 3.25 |
| COc1ccc2c(c1)C=C(C(=O)NCc1ccc(Cl)cc1)CO2 | 8.85 |
| Cc1ccc(N2C(=O)C3C4C=CC(CNC(=S)Nc5ccc(F)cc5)(O4)C3C2=O)cc1 (stereo not given) | 26.3 |
| CCOc1cc(S(=O)(=O)NC2CCCCCC2)ccc1F | 7.34 |

Tested on: not listed separately
Assay: as above
Details: S. cerevisiae expressing PfHsp90, BacTiter-Glo ATP luminescence, 48 h; at 26 µM (top of the series)

| Structure (SMILES) | activity change, negative = inhibition |
| --- | --- |
| Cc1ccc(N2C(=O)C3C4C=CC(CNC(=S)Nc5cccc(Cl)c5)(O4)C3C2=O)cc1 (stereo not given) | -41.4% (inactive) |
| Nc1c2ccccc2nc2ccccc12 (tested in a mixture with another compound) | 51.8% (inactive) and 38.4% (inactive) |
| O=C1C(Cl)=C(NCCc2ccccc2)C(=O)c2ccccc21 | 1.42% (inactive) |
| COc1ccc2c(c1)[nH]c1c(C)nccc12 | 217% (inactive) |
